Results as given in PubChem BioAssay (NCI).
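These data come from cells grown in 96-well plates and exposed to compound for 48 hours at five concentrations. GI50 marks 50% less growth. The concentration for full growth arrest is given as TGI.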

Columns and labels:
Experiment in all cases: inhibition of tumour cell growth, NCI panel, 48 h
[1] = test system: MOLT-4 leukemia
[2] = test system: SR leukemia
[3] = test system: SNB-75 CNS
[4] = test system: OVCAR-8 ovarian
[5] = test system: 786-0 renal
[6] = test system: HT29 colon
[7] = test system: UO-31 renal
[8] = test system: T-47D breast
[9] = test system: COLO 205 colon
[10] = test system: UACC-62 melanoma
[11] = test system: MDA-MB-231 breast
[12] = test system: NCI-H23 lung
[13] = test system: NCI-H226 lung
[14] = test system: NCI-H460 lung
[15] = test system: MCF7 breast
[16] = test system: BT-549 breast
[17] = test system: NCI/ADR-RES ovarian
[18] = test system: EKVX NSCLC
[19] = test system: HL-60(TB) leukemia
[20] = test system: MALME-3M melanoma
[21] = test system: LOX IMVI melanoma
[22] = test system: CCRF-CEM leukemia
[23] = test system: CAKI-1 renal
[24] = test system: SK-MEL-2 melanoma
[25] = test system: KM12 colon
[26] = test system: UACC-257 melanoma
[27] = test system: NCI-H522 lung
[28] = test system: SK-OV-3 ovarian
[29] = test system: OVCAR-5 ovarian
[30] = test system: RPMI-8226 leukemia
[31] = test system: SK-MEL-28 melanoma
[32] = test system: SNB-19 CNS
[33] = test system: HS 578T breast
[34] = test system: SF-268 CNS
[35] = test system: SW-620 colon
[36] = test system: SK-MEL-5 melanoma
[37] = test system: OVCAR-4 ovarian
[38] = test system: K-562 leukemia
[39] = test system: DU-145 prostate
[40] = test system: OVCAR-3 ovarian
[41] = test system: ACHN renal
[42] = test system: A498 renal
[43] = test system: IGROV1 ovarian
[44] = test system: A549 NSCLC
[45] = test system: M14 melanoma
[46] = test system: HOP-62 NSCLC
[47] = test system: SN12C renal
[48] = test system: HCT-15 colon
[49] = test system: SF-295 CNS
[50] = test system: HCT-116 colon
[51] = test system: TK-10 renal
[52] = test system: HCC-2998 colon
[53] = test system: PC-3 prostate
[54] = test system: U251 CNS
[55] = test system: MDA-MB-435
[56] = test system: SF-539 CNS
[57] = test system: HOP-92 NSCLC
[58] = test system: RXF 393 renal

C[C@H](Nc1ncnc2ccc(-c3cnc(Cl)c(NS(C)(=O)=O)c3)cc12)c1ccccc1
GI50 [1]: 4.33 µM | TGI [1]: > 100 µM | GI50 [2]: 2.1 µM | TGI [2]: > 100 µM | GI50 [3]: 0.257 µM | TGI [3]: 4.83 µM | GI50 [4]: 2.27 µM | TGI [4]: 16 µM | GI50 [5]: 1.14 µM | TGI [5]: 7.48 µM | GI50 [6]: 2.36 µM | TGI [6]: 19.7 µM | GI50 [7]: 0.284 µM | TGI [7]: 4.85 µM | GI50 [8]: 0.175 µM | TGI [8]: 2.41 µM | GI50 [9]: 2.29 µM | TGI [9]: 7.61 µM | GI50 [10]: 0.379 µM | TGI [10]: 2.16 µM | GI50 [11]: 1.03 µM | TGI [11]: 2.7 µM | GI50 [12]: 1.07 µM | TGI [12]: 5.18 µM | GI50 [13]: 0.943 µM | TGI [13]: 8.41 µM | GI50 [14]: 1.39 µM | TGI [14]: 13.5 µM | GI50 [15]: 0.277 µM | TGI [15]: 10.6 µM | GI50 [16]: 0.272 µM | TGI [16]: 2.05 µM | GI50 [17]: 4.76 µM | TGI [17]: 19.7 µM | GI50 [18]: 1.2 µM | TGI [18]: 4.36 µM | GI50 [19]: 9.47 µM | TGI [19]: > 100 µM | GI50 [20]: 0.242 µM | TGI [20]: 1.88 µM | GI50 [21]: 0.344 µM | TGI [21]: 1.89 µM | GI50 [22]: 5.46 µM | TGI [22]: > 100 µM | GI50 [23]: 1.11 µM | TGI [23]: 8.21 µM | GI50 [24]: 1.52 µM | TGI [24]: 3.5 µM | GI50 [25]: 2.3 µM | TGI [25]: 11.8 µM | GI50 [26]: 1.97 µM | TGI [26]: 13.4 µM | GI50 [27]: 2.9 µM | TGI [27]: 19.4 µM | GI50 [28]: 1.61 µM | TGI [28]: 7.72 µM | GI50 [29]: 1.37 µM | TGI [29]: 11.4 µM | GI50 [30]: 4.29 µM | TGI [30]: > 100 µM | GI50 [31]: 0.491 µM | TGI [31]: 6.77 µM | GI50 [32]: 1.18 µM | TGI [32]: 9.94 µM | GI50 [33]: 0.199 µM | TGI [33]: 0.862 µM | GI50 [34]: 1.11 µM | TGI [34]: 10.4 µM | GI50 [35]: 2 µM | TGI [35]: 11.3 µM | GI50 [36]: 1.04 µM | TGI [36]: 2.21 µM | GI50 [37]: 1.58 µM | TGI [37]: 11.7 µM | GI50 [38]: 7.97 µM | TGI [38]: > 100 µM | GI50 [39]: 2.73 µM | TGI [39]: 28.4 µM | GI50 [40]: 0.627 µM | TGI [40]: 2.94 µM | GI50 [41]: 2.18 µM | TGI [41]: > 100 µM | GI50 [42]: 0.269 µM | TGI [42]: 2.3 µM | GI50 [43]: 0.278 µM | TGI [43]: 1.5 µM | GI50 [44]: 3.17 µM | TGI [44]: 15.7 µM | GI50 [45]: 1.57 µM | TGI [45]: 12.6 µM | GI50 [46]: 1.3 µM | TGI [46]: 21 µM | GI50 [47]: 0.773 µM | TGI [47]: 27.8 µM | GI50 [48]: 0.766 µM | TGI [48]: 11.2 µM | GI50 [49]: 0.971 µM | TGI [49]: 4.14 µM | GI50 [50]: 1.68 µM | TGI [50]: 6.12 µM | GI50 [51]: 1.91 µM | TGI [51]: 21.5 µM | GI50 [52]: 0.924 µM | TGI [52]: 6.86 µM | GI50 [53]: 0.806 µM | TGI [53]: 37.1 µM | GI50 [54]: 1.05 µM | TGI [54]: 30.7 µM | GI50 [55]: 1.27 µM | TGI [55]: 10.7 µM | GI50 [56]: 1.13 µM | TGI [56]: 3.87 µM | GI50 [57]: 0.28 µM | TGI [57]: 4.84 µM

CNC(=O)c1cc(-n2ccc3cc(NC(=O)Nc4ccc(N5CCN(C)CC5)c(C(F)(F)F)c4)ccc32)ccn1
GI50 [1]: 0.744 µM | TGI [1]: 2.91 µM | GI50 [2]: 0.479 µM | TGI [2]: 2.85 µM | GI50 [3]: 1.2 µM | TGI [3]: 4.98 µM | GI50 [4]: 4.27 µM | TGI [4]: 8.27 µM | GI50 [5]: 2.03 µM | TGI [5]: 5.31 µM | GI50 [6]: 0.938 µM | TGI [6]: 3.59 µM | GI50 [7]: 4.27 µM | TGI [7]: 8.56 µM | GI50 [8]: 3.65 µM | TGI [8]: 9.08 µM | GI50 [9]: 4.21 µM | TGI [9]: 8.75 µM | GI50 [10]: 4.15 µM | TGI [10]: 8.22 µM | GI50 [11]: 3.48 µM | TGI [11]: 7.81 µM | GI50 [12]: 3.87 µM | TGI [12]: 8.32 µM | GI50 [13]: > 25 µM | TGI [13]: > 25 µM | GI50 [14]: 4.1 µM | TGI [14]: 8.4 µM | GI50 [15]: 2.3 µM | TGI [15]: 6.34 µM | GI50 [16]: 2.7 µM | TGI [16]: 5.75 µM | GI50 [58]: 0.633 µM | TGI [58]: 1.75 µM | GI50 [17]: 5.3 µM | TGI [17]: 13.7 µM | GI50 [18]: 3.46 µM | TGI [18]: 6.88 µM | GI50 [19]: 1.44 µM | TGI [19]: 6.33 µM | GI50 [20]: 3.2 µM | TGI [20]: 6.71 µM | GI50 [21]: 2.68 µM | TGI [21]: 5.95 µM | GI50 [22]: 2.54 µM | TGI [22]: 16 µM | GI50 [23]: 4.15 µM | TGI [23]: 8.3 µM | GI50 [24]: 4.33 µM | TGI [24]: 7.95 µM | GI50 [25]: 0.866 µM | TGI [25]: 3.88 µM | GI50 [26]: 3.97 µM | TGI [26]: 7.6 µM | GI50 [27]: > 25 µM | TGI [27]: > 25 µM | GI50 [28]: 4.21 µM | TGI [28]: 7.75 µM | GI50 [29]: 3.57 µM | TGI [29]: 7.74 µM | GI50 [30]: 0.886 µM | TGI [30]: 4.01 µM | GI50 [31]: 2.96 µM | TGI [31]: 6.38 µM | GI50 [32]: 3.49 µM | TGI [32]: 7.23 µM | GI50 [33]: 2.03 µM | TGI [33]: 7.26 µM | GI50 [34]: 3.3 µM | TGI [34]: 7.43 µM | GI50 [35]: 3.41 µM | TGI [35]: 7.11 µM | GI50 [36]: 4.28 µM | TGI [36]: 7.79 µM | GI50 [37]: 3.65 µM | TGI [37]: 8.62 µM | GI50 [39]: 3.97 µM | TGI [39]: 7.52 µM | GI50 [41]: 3.85 µM | TGI [41]: 7.22 µM | GI50 [42]: 3.61 µM | TGI [42]: 7.07 µM | GI50 [43]: 4.12 µM | TGI [43]: 8.44 µM | GI50 [44]: 3.58 µM | TGI [44]: 7.36 µM | GI50 [45]: 2.95 µM | TGI [45]: 6.09 µM | GI50 [46]: 3.41 µM | TGI [46]: 7.46 µM | GI50 [47]: 3.53 µM | TGI [47]: 7.56 µM | GI50 [48]: 0.796 µM | TGI [48]: 3.48 µM | GI50 [49]: 0.492 µM | TGI [49]: 1.11 µM | GI50 [50]: 1.7 µM | TGI [50]: 4.87 µM | GI50 [51]: 4.39 µM | TGI [51]: 8.16 µM | GI50 [52]: 3.53 µM | TGI [52]: 7.05 µM | GI50 [53]: 3.6 µM | TGI [53]: 9.56 µM | GI50 [54]: 2.43 µM | TGI [54]: 5.48 µM | GI50 [55]: 3.67 µM | TGI [55]: 7.17 µM | GI50 [56]: 1.2 µM | TGI [56]: 4.53 µM | GI50 [57]: 1.22 µM | TGI [57]: 4.68 µM
